In PubChem BioAssay AID248 (DTP/NCI, 2004):
Where “and” joins values, the source holds several entries; their conditions need not be identical. Identical values can stand only once. Toxic doses and inconclusive results are not listed.

Test system: L1210 leukemia ip in BDF1 mice, survival T/C
Experiment: NCI In Vivo Anticancer Drug Screen. Data for tumor model L1210 Leukemia (intraperitoneal) in B6D2F1 (BDF1) mice
Settings: endpoint: mean survival time, higher = longer survival
How it was run: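 Survival endpoint. Drug-treated group vs vehicle group, expressed as T divided by C. Tumor passaged by transplantation.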

[1] = dose: 100.0 mg/kg/injection, schedule: Q04DX003 (ip), vehicle: saline
[2] = dose: 200.0 mg/kg/injection, schedule: Q04DX003 (ip), vehicle: saline
[3] = dose: 400.0 mg/kg/injection, schedule: Q04DX003 (ip), vehicle: saline
[4] = dose: 50.0 mg/kg/injection, schedule: Q01DX009 (ip), vehicle: saline
[5] = dose: 100.0 mg/kg/injection, schedule: Q01DX009 (ip), vehicle: saline
[6] = dose: 200.0 mg/kg/injection, schedule: Q01DX009 (ip), vehicle: saline
[7] = dose: 15.0 mg/kg/injection, schedule: Q01DX Z (ip), vehicle: carboxymethylcellulose (CMC)
[8] = dose: 30.0 mg/kg/injection, schedule: Q01DX Z (ip), vehicle: carboxymethylcellulose (CMC)
[9] = dose: 100.0 mg/kg/injection, schedule: Q01DX001 (ip), vehicle: saline
[10] = dose: 100.0 mg/kg/injection, schedule: Q01DX009 (ip), vehicle: Klucel (hydroxypropylcellulose) (HPC)
[11] = dose: 100.0 mg/kg/injection, schedule: Q04DX003 (ip), vehicle: Klucel (hydroxypropylcellulose) (HPC)
[12] = dose: 200.0 mg/kg/injection, schedule: Q01DX001 (ip), vehicle: saline
[13] = dose: 200.0 mg/kg/injection, schedule: Q01DX009 (ip), vehicle: Klucel (hydroxypropylcellulose) (HPC)
[14] = dose: 200.0 mg/kg/injection, schedule: Q04DX003 (ip), vehicle: Klucel (hydroxypropylcellulose) (HPC)
[15] = dose: 400.0 mg/kg/injection, schedule: Q01DX001 (ip), vehicle: saline
[16] = dose: 400.0 mg/kg/injection, schedule: Q04DX003 (ip), vehicle: Klucel (hydroxypropylcellulose) (HPC)
[17] = dose: 100.0 mg/kg/injection, schedule: Q04DX003 (ip), vehicle: saline with Tween-80
[18] = dose: 200.0 mg/kg/injection, schedule: Q04DX003 (ip), vehicle: saline with Tween-80
[19] = dose: 400.0 mg/kg/injection, schedule: Q04DX003 (ip), vehicle: saline with Tween-80
[20] = dose: 100.0 mg/kg/injection, schedule: Q01DX009 (ip), vehicle: saline with Tween-80
[21] = dose: 200.0 mg/kg/injection, schedule: Q01DX009 (ip), vehicle: saline with Tween-80
[22] = dose: 400.0 mg/kg/injection, schedule: Q01DX009 (ip), vehicle: saline with Tween-80

Cc1ccc[n+]([O-])c1N=[N+]=[N-]
T/C [1]: 102 % of control | T/C [2]: 102 % of control | T/C [3]: 98 % of control

Cc1cc2nc(CN)[nH]c2cc1C
T/C [4]: 98 % of control | T/C [5]: 98 % of control | T/C [6]: 93 % of control

C/C(=N/N=C(N)N)c1ccc(/C(C)=N/N=C(N)N)cc1
T/C (dose: 3.75 mg/kg/injection, schedule: Q01DX Z (ip), vehicle: saline): 95 % of control | T/C (dose: 7.5 mg/kg/injection, schedule: Q01DX Z (ip), vehicle: carboxymethylcellulose (CMC)): 100 % of control | T/C (dose: 7.5 mg/kg/injection, schedule: Q01DX Z (ip), vehicle: saline): 101 % of control | T/C [7]: 107 % of control | T/C (dose: 15.0 mg/kg/injection, schedule: Q01DX Z (ip), vehicle: saline): 110 % of control and 112 % of control | T/C [8]: 117 % of control | T/C (dose: 30.0 mg/kg/injection, schedule: Q01DX Z (ip), vehicle: saline): 112 % of control | T/C (dose: 480.0 mg/kg/injection, schedule: Q01DX009 (oral), vehicle: saline): 93 % of control | T/C (dose: 960.0 mg/kg/injection, schedule: Q01DX009 (oral), vehicle: saline): 93 % of control

Clc1ccc2noc(-c3ccccc3)c2c1
T/C [9]: 104 % of control | T/C [10]: 95 % of control | T/C [11]: 100 % of control | T/C [12]: 100 % of control | T/C [13]: 102 % of control | T/C [14]: 94 % of control | T/C [15]: 98 % of control | T/C (dose: 400.0 mg/kg/injection, schedule: Q01DX009 (ip), vehicle: Klucel (hydroxypropylcellulose) (HPC)): 95 % of control | T/C [16]: 90 % of control

CCOC(=O)c1cc2ccccc2c2ccccc12
T/C [17]: 98 % of control | T/C [18]: 95 % of control | T/C [19]: 98 % of control

O=C(NNC(=O)OCCCl)OCCCl
T/C (dose: 111.0 mg/kg/injection, schedule: Q01DX Z (ip), vehicle: methylcellulose (MC)): 107 % of control | T/C (dose: 166.0 mg/kg/injection, schedule: Q01DX Z (ip), vehicle: methylcellulose (MC)): 92 % of control | T/C (dose: 250.0 mg/kg/injection, schedule: Q01DX Z (ip), vehicle: methylcellulose (MC)): 107 % of control

C/C(=N/NC(N)=O)C1CC2CCC1CC2 (configuration not stated)
T/C (dose: 50.0 mg/kg/injection, schedule: Q01DX009 (ip), vehicle: Klucel (hydroxypropylcellulose) (HPC)): 102 % of control | T/C [10]: 93 % of control | T/C [13]: 89 % of control

NC(N)=N/N=C(/C=N/N=C(N)N)C(O)C(O)CO (configuration not stated)
T/C [7]: 101 % of control | T/C [8]: 98 % of control | T/C [4]: 98 % of control | T/C (dose: 60.0 mg/kg/injection, schedule: Q01DX Z (ip), vehicle: carboxymethylcellulose (CMC)): 104 % of control | T/C [5]: 98 % of control | T/C [1]: 102 % of control | T/C (dose: 120.0 mg/kg/injection, schedule: Q01DX Z (ip), vehicle: carboxymethylcellulose (CMC)): 101 % of control | T/C [6]: 95 % of control | T/C [2]: 94 % of control | T/C [3]: 100 % of control

NC(N)=Nc1ccc(Sc2ccc(N=C(N)N)cc2)cc1
T/C (dose: 75.0 mg/kg/injection, schedule: Q01DX001 (ip), vehicle: carboxymethylcellulose (CMC)): 101 % of control | T/C (dose: 150.0 mg/kg/injection, schedule: Q01DX001 (ip), vehicle: carboxymethylcellulose (CMC)): 98 % of control | T/C (dose: 300.0 mg/kg/injection, schedule: Q01DX001 (ip), vehicle: carboxymethylcellulose (CMC)): 98 % of control

COC(=O)/C(C#N)=C/c1c[nH]c2ccccc12
T/C [20]: 101 % of control | T/C [17]: 101 % of control | T/C [21]: 95 % of control | T/C [18]: 93 % of control | T/C [22]: 100 % of control | T/C [19]: 98 % of control

CN(C(=O)OCc1ccccc1)c1ccc(C(=O)NC(CC(=O)O)CC(=O)O)cc1
T/C [9]: 88 % of control | T/C [12]: 96 % of control | T/C [15]: 90 % of control

Cc1ccc(NS(=O)(=O)c2ccccc2)nc1
T/C [20]: 96 % of control | T/C [17]: 99 % of control | T/C [21]: 98 % of control | T/C [18]: 93 % of control | T/C [22]: 98 % of control | T/C [19]: 96 % of control

CC(=O)OC(c1ccccc1)c1ccccn1 (configuration not stated)
T/C (dose: 50.0 mg/kg/injection, schedule: Q01DX009 (ip), vehicle: saline with Tween-80): 105 % of control | T/C [20]: 98 % of control | T/C [21]: 94 % of control

CC(O)(C(=O)O)c1ccccc1 (configuration not stated) (tested in a mixture with another compound)
T/C (dose: 100.0 mg/kg/injection, schedule: Q01DX009 (ip), vehicle: other): 94 % of control | T/C [1]: 92 % of control | T/C (dose: 200.0 mg/kg/injection, schedule: Q01DX009 (ip), vehicle: other): 98 % of control | T/C [2]: 103 % of control | T/C (dose: 400.0 mg/kg/injection, schedule: Q01DX009 (ip), vehicle: other): 102 % of control | T/C [3]: 89 % of control

O=C(Nc1cccc2ccccc12)Oc1ccccc1Cc1ccccc1
T/C [11]: 93 % of control | T/C [14]: 93 % of control | T/C [16]: 96 % of control

NCCNCCN1CC1
T/C (dose: 10.0 mg/kg/injection, schedule: Q04DX002 (ip), vehicle: saline): 104 % of control | T/C (dose: 20.0 mg/kg/injection, schedule: Q04DX002 (ip), vehicle: saline): 115 % of control | T/C (dose: 40.0 mg/kg/injection, schedule: Q04DX002 (ip), vehicle: saline): 106 % of control

O=c1c2ccccc2c(=O)c2c1ccc1[nH]c3ccccc3n(-c3ccccc3)c12
T/C [17]: 88 % of control | T/C [18]: 89 % of control | T/C [19]: 94 % of control

CCN(Cc1ccncc1)C(=O)C(O)(c1ccccc1)c1ccccc1
T/C (dose: 100.0 mg/kg/injection, schedule: Q01DX001 (ip), vehicle: saline with Tween-80): 93 % of control | T/C (dose: 200.0 mg/kg/injection, schedule: Q01DX001 (ip), vehicle: saline with Tween-80): 88 % of control | T/C (dose: 400.0 mg/kg/injection, schedule: Q01DX001 (ip), vehicle: saline with Tween-80): 87 % of control

c1csc(C2SC(c3cccs3)SC(c3cccs3)S2)c1 (configuration not stated)
T/C (dose: 100.0 mg/kg/injection, schedule: Q01DX001 (ip), vehicle: carboxymethylcellulose (CMC)): 100 % of control | T/C (dose: 200.0 mg/kg/injection, schedule: Q01DX001 (ip), vehicle: carboxymethylcellulose (CMC)): 92 % of control | T/C (dose: 400.0 mg/kg/injection, schedule: Q01DX001 (ip), vehicle: carboxymethylcellulose (CMC)): 95 % of control

C=C1CC(CC)C(C)OC1=O (configuration not stated)
T/C [9]: 102 % of control | T/C [12]: 102 % of control | T/C [15]: 98 % of control

COc1cc2c(ccc3c4cc(OC)c(OC)cc4c[n+](C)c23)cc1O
T/C (dose: 80.0 mg/kg/injection, schedule: Q01DX009 (ip), vehicle: saline): 159 % of control | T/C [11]: 120 % of control | T/C (dose: 320.0 mg/kg/injection, schedule: Q01DX009 (ip), vehicle: saline): 161 % of control | T/C [16]: 120 % of control
